# Reference: ChEMBL document CHEMBL3885881, “DrugMatrix”
# Species on record: Rattus norvegicus
# Experiment: DrugMatrix - Regimen: Daily Repeat
# Format: toxicity, organism-based, Sprague-Dawley
# Design: regimen Daily Repeat, gender Male, age 6-8 weeks
# Conditions: in vivo, po, route oral GAVAGE, […]; for ABSOLUTE BASOPHIL / ABSOLUTE EOSINOPHIL / ABSOLUTE LYMPHOCYTE / ABSOLUTE MONOCYTE / ABSOLUTE SEGMENTED NEUTROPHIL / BASOPHIL / EOSINOPHIL / ERYTHROCYTE COUNT / HEMATOCRIT / HEMOGLOBIN / LEUKOCYTE COUNT / LYMPHOCYTE / MEAN CORPUSCULAR HEMOGLOBIN / MEAN CORPUSCULAR HEMOGLOBIN CONCENTRATION / MEAN CORPUSCULAR VOLUME / MONOCYTE / NEUTROPHIL / NUCLEATED RED BLOOD CELLS / PLATELET COUNT: tissue Blood; for ALANINE AMINOTRANSFERASE / ALBUMIN / ALKALINE PHOSPHATASE / ASPARTATE AMINOTRANSFERASE / BLOOD UREA NITROGEN / CARBON DIOXIDE / CHLORIDE / CHOLESTEROL / CREATINE PHOSPHOKINASE / CREATININE / GLUCOSE / LACTATE DEHYDROGENASE / LIPASE / PHOSPHORUS / POTASSIUM / SODIUM / TOTAL BILIRUBIN / TOTAL PROTEIN / URIC ACID: tissue Plasma
# [1] = 0 mg/kg, 72 h, dose level Control, time 3 day
# [2] = 0 mg/kg, 120 h, dose level Control, time 5 day
# [3] = 29 mg/kg, 72 h, dose level Low, time 3 day
structure (smiles),measurement,setting,value
C[C@@H]1CN(c2c(F)c(N)c3c(=O)c(C(=O)O)cn(C4CC4)c3c2F)C[C@H](C)N1 [SPARFLOXACIN],ABSOLUTE BASOPHIL,[1],0 CELLS/uL
same,ABSOLUTE EOSINOPHIL,[1],70.67 CELLS/uL
same,ABSOLUTE LYMPHOCYTE,[1],12761.5 CELLS/uL
same,ABSOLUTE MONOCYTE,[1],214.17 CELLS/uL
same,ABSOLUTE SEGMENTED NEUTROPHIL,[1],987 CELLS/uL
same,BASOPHIL,[1],0%
same,EOSINOPHIL,[1],0.5%
same,ERYTHROCYTE COUNT,[1],5.61 x10E6/uL
same,HEMATOCRIT,[1],35.22%
same,HEMOGLOBIN,[1],13.57 G/DL
same,LEUKOCYTE COUNT,[1],14.03 x10E3/uL
same,LYMPHOCYTE,[1],91%
same,MEAN CORPUSCULAR HEMOGLOBIN,[1],24.25 pg
same,MEAN CORPUSCULAR HEMOGLOBIN CONCENTRATION,[1],38.52 G/DL
same,MEAN CORPUSCULAR VOLUME,[1],62.9 fL
same,MONOCYTE,[1],1.5%
same,NEUTROPHIL,[1],7%
same,NUCLEATED RED BLOOD CELLS,[1],0 /100WBC
same,PLATELET COUNT,[1],997.5 x10E3/uL
same,ALANINE AMINOTRANSFERASE,[1],66.5 u/L
same,ALBUMIN,[1],3.98 G/DL
same,ALKALINE PHOSPHATASE,[1],350 u/L
same,ASPARTATE AMINOTRANSFERASE,[1],83.83 u/L
same,BLOOD UREA NITROGEN,[1],12.33 mg/dL
same,CARBON DIOXIDE,[1],30.33 mmol/L
same,CHLORIDE,[1],100 MEQ/L
same,CHOLESTEROL,[1],75 mg/dL
same,CREATINE PHOSPHOKINASE,[1],200 u/L
same,CREATININE,[1],0.17 mg/dL
same,GLUCOSE,[1],170 mg/dL
same,LACTATE DEHYDROGENASE,[1],89.33 u/L
same,LIPASE,[1],10.33 u/L
same,PHOSPHORUS,[1],10.88 mg/dL
same,POTASSIUM,[1],6.13 MEQ/L
same,SODIUM,[1],140.53 MEQ/L
same,TOTAL BILIRUBIN,[1],0.2 mg/dL
same,TOTAL PROTEIN,[1],5.67 G/DL
same,URIC ACID,[1],1.6 mg/dL
same,ABSOLUTE BASOPHIL,[2],0 CELLS/uL
same,ABSOLUTE EOSINOPHIL,[2],0 CELLS/uL
same,ABSOLUTE LYMPHOCYTE,[2],9526.67 CELLS/uL
same,ABSOLUTE MONOCYTE,[2],134.17 CELLS/uL
same,ABSOLUTE SEGMENTED NEUTROPHIL,[2],922.5 CELLS/uL
same,BASOPHIL,[2],0%
same,EOSINOPHIL,[2],0%
same,ERYTHROCYTE COUNT,[2],5.58 x10E6/uL
same,HEMATOCRIT,[2],34.78%
same,HEMOGLOBIN,[2],13.5 G/DL
same,LEUKOCYTE COUNT,[2],10.58 x10E3/uL
same,LYMPHOCYTE,[2],90.17%
same,MEAN CORPUSCULAR HEMOGLOBIN,[2],24.27 pg
same,MEAN CORPUSCULAR HEMOGLOBIN CONCENTRATION,[2],38.82 G/DL
same,MEAN CORPUSCULAR VOLUME,[2],62.48 fL
same,MONOCYTE,[2],1.17%
same,NEUTROPHIL,[2],8.67%
same,NUCLEATED RED BLOOD CELLS,[2],0.17 /100WBC
same,PLATELET COUNT,[2],807.17 x10E3/uL
same,ALANINE AMINOTRANSFERASE,[2],66.83 u/L
same,ALBUMIN,[2],3.73 G/DL
same,ALKALINE PHOSPHATASE,[2],286.17 u/L
same,ASPARTATE AMINOTRANSFERASE,[2],142.33 u/L
same,BLOOD UREA NITROGEN,[2],14.67 mg/dL
same,CARBON DIOXIDE,[2],25.5 mmol/L
same,CHLORIDE,[2],89.17 MEQ/L
same,CHOLESTEROL,[2],75.17 mg/dL
same,CREATINE PHOSPHOKINASE,[2],310.67 u/L
same,CREATININE,[2],0.2 mg/dL
same,GLUCOSE,[2],153 mg/dL
same,LACTATE DEHYDROGENASE,[2],1594 u/L
same,LIPASE,[2],14.83 u/L
same,PHOSPHORUS,[2],11.28 mg/dL
same,POTASSIUM,[2],8.46 MEQ/L
same,SODIUM,[2],126.88 MEQ/L
same,TOTAL BILIRUBIN,[2],0.37 mg/dL
same,TOTAL PROTEIN,[2],5.53 G/DL
same,URIC ACID,[2],1.52 mg/dL
same,ABSOLUTE BASOPHIL,[3],0 CELLS/uL
same,ABSOLUTE EOSINOPHIL,[3],0 CELLS/uL
same,ABSOLUTE LYMPHOCYTE,[3],14451.67 CELLS/uL
same,ABSOLUTE MONOCYTE,[3],45 CELLS/uL
same,ABSOLUTE SEGMENTED NEUTROPHIL,[3],1203.33 CELLS/uL
same,BASOPHIL,[3],0%
same,EOSINOPHIL,[3],0%
same,ERYTHROCYTE COUNT,[3],5.64 x10E6/uL
same,HEMATOCRIT,[3],35.07%
same,HEMOGLOBIN,[3],13.97 G/DL
same,LEUKOCYTE COUNT,[3],15.7 x10E3/uL
same,LYMPHOCYTE,[3],92%
same,MEAN CORPUSCULAR HEMOGLOBIN,[3],24.77 pg
same,MEAN CORPUSCULAR HEMOGLOBIN CONCENTRATION,[3],39.83 G/DL
same,MEAN CORPUSCULAR VOLUME,[3],62.2 fL
same,MONOCYTE,[3],0.33%
same,NEUTROPHIL,[3],7.67%
same,NUCLEATED RED BLOOD CELLS,[3],0.33 /100WBC
same,PLATELET COUNT,[3],1161 x10E3/uL
same,ALANINE AMINOTRANSFERASE,[3],67.67 u/L
same,ALBUMIN,[3],4 G/DL
same,ALKALINE PHOSPHATASE,[3],395.67 u/L
same,ASPARTATE AMINOTRANSFERASE,[3],96.33 u/L
same,BLOOD UREA NITROGEN,[3],9.67 mg/dL
same,CARBON DIOXIDE,[3],25 mmol/L
same,CHLORIDE,[3],102.33 MEQ/L
same,CHOLESTEROL,[3],76.33 mg/dL
same,CREATINE PHOSPHOKINASE,[3],757 u/L
same,CREATININE,[3],0.16 mg/dL
same,GLUCOSE,[3],172.67 mg/dL
same,LACTATE DEHYDROGENASE,[3],255.33 u/L
same,LIPASE,[3],10.33 u/L
same,PHOSPHORUS,[3],11.53 mg/dL
same,POTASSIUM,[3],6.56 MEQ/L
same,SODIUM,[3],142.23 MEQ/L
same,TOTAL BILIRUBIN,[3],0.13 mg/dL
same,TOTAL PROTEIN,[3],5.83 G/DL
same,URIC ACID,[3],1.93 mg/dL
